Results on 4 compounds are retold here after patent US20170291905A1, “ARGININE […] INHIBITORS AND USES THEREOF” (Epizyme, Inc., priority 2014, published 2017).

pIC50: −log10 of the molar value.

In general, pIC50 refers to −log10 of the IC50, conventionally taken in molar units.

In test [1] the target is full-length human PRMT6 (Flag- and His-tagged) (Homo sapiens, UniProt Q96LA8). Nature of the test: PRMT6 biochemical assay (3H-SAM Flashplate, histone H4 36-50 K44me1 peptide). To be noted: 1 nM PRMT6, 30 min preincubation, 75 nM peptide. The text has this:
S-adenosylmethionine (SAM), S-adenosylhomocysteine (SAH), bicine, Tween20, dimethylsulfoxide (DMSO), bovine skin gelatin (BSG), sodium butyrate and Tris(2-carboxyethyl)phosphine hydrochloride solution (TCEP) were purchased from Sigma-Aldrich at the highest level of purity possible. ^3H-SAM was purchase from American Radiolabeled Chemicals with a specific activity of 80 Ci/mmol. 384-well streptavidin Flashplates were purchased from PerkinElmer.
Peptide representative of human histone H4 residues 36-50 was synthesized with an N-terminal linker-affinity tag motif and a C-terminal amide cap by 21st Century Biochemicals. The peptide was purified by high-performance liquid chromatography (HPLC) to greater than 95% purity and confirmed by liquid chromatography mass spectrometry (LC-MS). The sequence was Biot-Ahx-[…]-amide and contained a monomethylated lysine at position 44 (SEQ ID NO.:5).
Full-length human PRMT6 (NM_018137.2) transcript clone was amplified from an HEK 293 cDNA library, incorporating a flanking 5′ sequence encoding a FLAG tag ([…]) (SEQ ID NO.:6) fused directly to Ser 2 of PRMT6 and a 3′ sequence encoding a hexa His sequence (HHHHHH) (SEQ ID NO.: 17) fused directly to Asp 375. The amplified gene was subcloned into pFastBacMam (Viva Biotech).
Recombinant baculovirus were generated according to Bac-to-Bac kit instructions (Life Technologies). […] Infections were carried out at 37° C. for 48 hours, harvested by centrifugation, and stored at −80° C. for purification.
Column was washed with 20 mM imidazole in the same buffer and Flag-PRMT6-His was eluted with 150 mM imidazole. Pooled fractions were dialysed against buffer Ni-A and further purified by anti-flag M2 affinity chromatography. Flag-PRMT6-His was eluted with 200 ug/ml FLAG peptide in the same buffer. Pooled fractions were dialysed in 20 mM Tris, 150 mM NaCl, 10% glycerol and 5 mM β-mercaptoethanol, pH 7.8. The purity of recovered protein was 95%.
General Procedure for PRMT6 Enzyme Assays on Peptide Substrates.
The assays were all performed in a buffer consisting of 20 mM Bicine (pH=7.6), 1 mM TCEP, 0.005% BSG, and 0.002% Tween 20, prepared on the day of use. Compounds in 100% DMSO (1 ul) were spotted into a polypropylene 384-well V-bottom plates (Greiner) using a Platemate Plus outfitted with a 384-channel head (Thermo Scientific). DMSO (1 ul) was added to Columns 11, 12, 23, 24, rows A-H for the maximum signal control and 1 ul of SAH, a known product and inhibitor of PRMT6, was added to columns 11, 12, 23, 24, rows I-P for the minimum signal control. A cocktail (40 ul) containing the PRMT6 enzyme was added by Multidrop Combi (Thermo-Fisher). The compounds were allowed to incubate with PRMT6 for 30 min at room temperature, then a cocktail (10 ul) containing SAM and peptide was added to initiate the reaction (final volume=51 ul). The final concentrations of the components were as follows: PRMT6 was 1 nM, ^3H-SAM was 200 nM, non-radiolabeled SAM was 250 nM, peptide was 75 nM, SAH in the minimum signal control wells was 1 mM, and the DMSO concentration was 2%. The assays were stopped by the addition of non-radiolabeled SAM (10 ul) to a final concentration of 400 uM, which dilutes the ^3H-SAM to a level where its incorporation into the peptide substrate is no longer detectable. 50 ul of the reaction in the 384-well polypropylene plate was then transferred to a 384-well Flashplate and the biotinylated peptides were allowed to bind to the streptavidin surface for at least 1 hour before being washed once with 0.1% Tween20 in a Biotek ELx405 plate washer. The plates were then read in a PerkinElmer TopCount plate reader to measure the quantity of ^3H-labeled peptide bound to the Flashplate surface, measured as disintegrations per minute (dpm) or alternatively, referred to as counts per minute (cpm).
(§1) Where dpm=disintegrations per minute, cmpd=signal in assay well, and min and max are the respective minimum and maximum signal controls. […]

The target in test [2] is T1, full-length human PRMT1 isoform 1 (GST-tagged) (Homo sapiens, UniProt Q99873).
T1 construct: GST-tagged PRMT1 was eluted with 50 mM Tris, 2 mM glutathione, pH 7.8, dialysed in buffer A and concentrated; made in house; host or cells: High Five insect cells (baculovirus)
Nature of the test: PRMT1 biochemical assay (3H-SAM Flashplate, histone H4 36-50 peptide). To be noted: 0.5 nM PRMT1, 30 min preincubation, 20 nM peptide.
Description: S-adenosylmethionine (SAM), S-adenosylhomocysteine (SAH), bicine, Tween20, dimethylsulfoxide (DMSO), bovine skin gelatin (BSG), and Tris(2-carboxyethyl)phosphine hydrochloride solution (TCEP) were purchased from Sigma-Aldrich at the highest level of purity possible. ^3H-SAM was purchase from American Radiolabeled Chemicals with a specific activity of 80 Ci/mmol. 384-well streptavidin Flashplates were purchased from PerkinElmer.
Peptide representative of human histone H4 residues 36-50 was synthesized with an N-terminal linker-affinity tag motif and a C-terminal amide cap by 21st Century Biochemicals. The peptide was purified by high-performance liquid chromatography (HPLC) to greater than 95% purity and confirmed by liquid chromatography mass spectrometry (LC-MS). The sequence was Biot-Ahx-[…]-amide (SEQ ID NO.:1).
Full-length human PRMT1 isoform 1 (NM_001536.5) transcript clone was amplified from an HEK 293 cDNA library, incorporating flanking 5′ sequence encoding a FLAG tag ([…]) (SEQ ID NO.:2) fused directly to Met 1 of PRMT1. The amplified gene was subcloned into pFastBacI (Life Technologies) modified to encode an N-terminal GST tag and a TEV cleavage sequence
Recombinant baculovirus were generated according to Bac-to-Bac kit instructions (Life Technologies). Protein over-expression was accomplished by infecting exponentially growing High Five insect cell culture at 1.5×10^6 cell/ml with 1:100 ratio of virus. Infections were carried out at 27° C. for 48 hours, harvested by centrifugation, and stored at −80° C. for purification.
GST-tagged PRMT1 was eluted with 50 mM Tris, 2 mM glutathione, pH 7.8, dialysed in buffer A and concentrated to 1 mg/mL. The purity of recovered protein was 73%. Reference: Wasilko, D. J. and S. E. Lee: “TIPS: titerless infected-cells preservation and scale-up” Bioprocess J., 5 (2006), pp. 29-32.
General Procedure for PRMT1 Enzyme Assays on Peptide Substrates.
The assays were all performed in a buffer consisting of 20 mM Bicine (pH=7.6), 1 mM TCEP, 0.005% BSG, and 0.002% Tween 20, prepared on the day of use. Compounds in 100% DMSO (1 ul) were spotted into a polypropylene 384-well V-bottom plates (Greiner) using a Platemate Plus outfitted with a 384-channel head (Thermo Scientific). DMSO (1 ul) was added to Columns 11, 12, 23, 24, rows A-H for the maximum signal control and 1 ul of SAH, a known product and inhibitor of PRMT1, was added to columns 11, 12, 23, 24, rows I-P for the minimum signal control. A cocktail (40 ul) containing the PRMT1 enzyme was added by Multidrop Combi (Thermo-Fisher). The compounds were allowed to incubate with PRMT1 for 30 min at room temperature, then a cocktail (10 ul) containing SAM and peptide was added to initiate the reaction (final volume=51 ul). The final concentrations of the components were as follows: PRMT1 was 0.5 nM, ^3H-SAM was 200 nM, non-radiolabeled SAM was 1.5 uM, peptide was 20 nM, SAH in the minimum signal control wells was 1 mM, and the DMSO concentration was 2%. The assays were stopped by the addition of non-radiolabeled SAM (10 ul) to a final concentration of 300 uM, which dilutes the ^3H-SAM to a level where its incorporation into the peptide substrate is no longer detectable. 50 ul of the reaction in the 384-well polypropylene plate was then transferred to a 384-well Flashplate and the biotinylated peptides were allowed to bind to the streptavidin surface for at least 1 hour before being washed once with 0.1% Tween20 in a Biotek ELx405 plate washer. The plates were then read in a PerkinElmer TopCount plate reader to measure the quantity of ^3H-labeled peptide bound to the Flashplate surface, measured as disintegrations per minute (dpm) or alternatively, referred to as counts per minute (cpm).
as §1

Chain of full-length human PRMT6 (Flag- and His-tagged) (Q96LA8 with tags, fused parts or gaps): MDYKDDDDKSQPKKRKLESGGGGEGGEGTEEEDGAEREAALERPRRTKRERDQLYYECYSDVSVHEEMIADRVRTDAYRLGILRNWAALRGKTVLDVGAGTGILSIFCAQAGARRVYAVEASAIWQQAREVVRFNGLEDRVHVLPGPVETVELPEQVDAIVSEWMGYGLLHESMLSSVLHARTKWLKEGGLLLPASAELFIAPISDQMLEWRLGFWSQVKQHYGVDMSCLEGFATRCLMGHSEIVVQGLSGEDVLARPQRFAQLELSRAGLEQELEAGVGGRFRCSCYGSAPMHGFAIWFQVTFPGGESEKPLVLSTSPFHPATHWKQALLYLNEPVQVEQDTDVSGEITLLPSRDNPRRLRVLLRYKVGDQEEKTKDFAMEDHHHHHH
T1 sequence (Q99873 with tags, fused parts or gaps): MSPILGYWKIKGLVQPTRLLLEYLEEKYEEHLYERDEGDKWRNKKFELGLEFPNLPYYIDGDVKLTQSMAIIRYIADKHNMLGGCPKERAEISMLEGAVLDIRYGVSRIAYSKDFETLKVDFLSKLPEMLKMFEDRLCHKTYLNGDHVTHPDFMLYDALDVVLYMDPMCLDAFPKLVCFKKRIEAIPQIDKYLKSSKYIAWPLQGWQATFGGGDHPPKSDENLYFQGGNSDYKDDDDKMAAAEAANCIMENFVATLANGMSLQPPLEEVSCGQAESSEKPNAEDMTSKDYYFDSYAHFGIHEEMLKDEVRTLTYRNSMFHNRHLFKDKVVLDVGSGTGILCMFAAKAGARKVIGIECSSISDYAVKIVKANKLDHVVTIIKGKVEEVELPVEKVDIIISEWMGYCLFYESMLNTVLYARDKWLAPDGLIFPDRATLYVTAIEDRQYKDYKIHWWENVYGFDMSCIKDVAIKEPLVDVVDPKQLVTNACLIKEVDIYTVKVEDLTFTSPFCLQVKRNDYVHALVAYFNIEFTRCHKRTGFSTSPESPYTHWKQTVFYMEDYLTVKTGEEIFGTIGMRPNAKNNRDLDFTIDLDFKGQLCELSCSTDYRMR

As for `CN(CCN)Cc1cn(C)nc1[C@H]1CC[C@@]2(CC1)CC(C)(C)CO2` [compound 55], the values for the negative-log IC50 (pIC50) in test [1] and in test [2] were 6.72 and 8.14, respectively.

Consider `CNCCN(C)Cc1c([C@H]2CC[C@@]3(CC2)CC(C)(C)CO3)nnn1C` [compound 53], for which the pIC50 in test [1] was under 5.00; in test [2], 5.23.

Turning to `CN(CCN)Cc1cn(C)nc1[C@H]1CC[C@]2(CC1)CC(C)(C)CO2` [compound 56], the pIC50 in test [1] was 6.07; in test [2], 7.51.

For the compound `CNCCN(C)Cc1c([C@H]2CC[C@]3(CC2)CC(C)(C)CO3)nnn1C` [compound 54], the results for the negative logarithm of the IC50 (pIC50) in test [1] and in test [2] were 5.00 and 5.03, respectively.
